# Experimental data as given in patent publication US6780978B2, “Fluorescence-activating antisera and IgG fraction therefrom” (Hamamatsu Photonics, K.K., priority 1998, dated 2004).
# Tests used:
# anti-MG-KLH IgG [1] = test: Absorption spectra of dye mixed with IgG fraction; format: binding, guinea-pig
# Protocol: Concentrations of the aforementioned IgG fraction and MG solution were adjusted by dilution such that the protein concentration as described above and MG concentration would finally be 2 μM and 4 μM, respectively. Further, employing γ globulin of a guinea-pig as the control against anti-MG-KLH IgG (i.e., blank IgG), the absorption spectrum of a mixture of the IgG fraction and the MG solution was measured (See FIG. 3).
# anti-MG-KLH IgG [2] = test: Differential fluorescence spectra of dye mixed with IgG fraction; format: binding, guinea-pig; conditions: for fluorescent ability upon mixing with anti-MG-KLH IgG: differential spectrum versus blank IgG
# Text: Since the differential spectra can remove problematic noises in the fluorescence analysis such as the fluorescence of a cell itself and Raman scattering of a solvent, it becomes possible to obtain the fluorescence spectrum purely pertaining to a sample.
# [3] = system: IgG fraction derived from Guinea-pig 1; test: Fluorescence of Malachite Green dilutions mixed with the IgG fraction; format: binding; conditions: IgG fraction 0.2 μM, excitation 617 nm
# Protocol: A series of dilutions of Malachite Green in PBS solutions are prepared by adding to the solutions, the IgG fraction according to the invention which has been derived from Guinea-pig 1 in certain amounts (with the final concentration being 0.2 μM), and by adjusting concentrations of the dye within the range of 0-12 nM.
# Fluorescence of these dilutions is measured with a Hitachi Model 850 fluorescence spectrophotometer under the following conditions: in a quartz cell of optical path length of 1.0 cm at the excitation side; an excitation wavelength of 617 nm; an emission wavelength of 650 nm; a band-pass width of 5 nm at both excitation and emission sides; High gain of a photomultiplier; a time constant of 1.5 sec; and a fluorescence integration time of 30 sec. Thus, a concentration-fluorescence intensity curve is prepared (See FIG. 5).
# The fluorescence intensity is expressed as output values (i.e., arbitrary, relative units) of the fluorescence spectrophotometer.
# [4] = Absorbance of Malachite Green dilutions in PBS at 617 nm; format: physicochemical; conditions: 1 cm path
# Protocol: Malachite Green is dissolved in a phosphate-buffered saline (hereinafter referred to as “PBS”) to prepare a series of dilutions in the concentration range of 4-4,000 nM.
# Absorbance at a wavelength of 617 nm in these dilutions is measured with a Hitachi Model 557 two wavelength spectrophotometer using a quartz cell with a 1 cm optical path length and PBS as the reference (See Table 1), and a concentration—absorbance curve is prepared (See FIG. 6).
Compound,change of absorption intensity in anti-MG-KLH IgG mixed solution (anti-MG-KLH IgG [1]),shift of absorption spectrum in anti-MG-KLH IgG mixed solution (anti-MG-KLH IgG [1]),fluorescent ability upon mixing with anti-MG-KLH IgG (anti-MG-KLH IgG [2]),Fluorescence intensity (650 nm) ([3]; 0.04 nM dye),Fluorescence intensity (650 nm) ([3]; 0.12 nM dye),Fluorescence intensity (650 nm) ([3]; 0.4 nM dye),Fluorescence intensity (650 nm) ([3]; 1.2 nM dye),Fluorescence intensity (650 nm) ([3]; 4 nM dye),Fluorescence intensity (650 nm) ([3]; 12 nM dye),"shift of wavelength of absorption maximum to longer wavelength relative to dye alone (anti-MG-KLH IgG [1]; IgG 2 μM, MG 4 μM)",increase of fluorescence quantum yield (anti-MG-KLH IgG [2]; by the treatment according to the invention),Absorbance (617 nm) ([4]; 4 nM in PBS),Absorbance (617 nm) ([4]; 12 nM in PBS),Absorbance (617 nm) ([4]; 40 nM in PBS),Absorbance (617 nm) ([4]; 120 nM in PBS),Absorbance (617 nm) ([4]; 400 nM in PBS),Absorbance (617 nm) ([4]; 1200 nM in PBS),Absorbance (617 nm) ([4]; 4000 nM in PBS)
CN(C)c1ccc(C(=N)c2ccc(N(C)C)cc2)cc1.Cl [Auramine O],decline in the absorption intensity,shift toward longer wavelengths,manifests its fluorescent ability,,,,,,,,,,,,,,,
CN(C)c1ccc(C(=C2C=CC(=[N+](C)C)C=C2)c2ccccc2)cc1 [Malachite Green],,,fluorescent,"0.026 arbitrary, relative units","0.034 arbitrary, relative units","0.066 arbitrary, relative units","0.18 arbitrary, relative units","0.487 arbitrary, relative units","1.22 arbitrary, relative units",6-7 nm,"over 1,000 times",0,0,0.002,0.009,0.036,0.132,0.464
